Reference: US20040029787A1, “Use of substances with oxytocin activity against climacteric disorders” (priority 2000, published 2004)
“And” between values parts separate entries of the source, which are not always exact repeats. Equal values may be shown once.

Tests used:
ovariectomized rats = assay: Bone loss in ovariectomized rats, densitometric and morphometric studies; format: in vivo, rat
Method: Four lots of 120-day-old female Wistar rats (mean±SD initial weight 273±28 g) were used. The rats were randomized into groups based on their body weight. […] Sample size was calculated in a pilot study after determining the variability of densitometric measurements.
All rats were fed standard chow feed containing 7.1 g/kg of calcium and 5 g/kg of phosphorus; the energy content of the feed was 3100 kcal/kg. A control group of 15 rats were not manipulated but fed the stud diet (control group, mean initial weight 269±31 g). A experimental group of 15 rats was ovariectomized at 120 days of life and given oxytocin for 10 days 1.0 mg/kg sc. (OVX+Oxy group, mean initial weight 277±32 g). A group of 15 rats underwent ovariectomy (OVX group, mean initial weight 282±27 g). […] The ovariectomy was performed as in previous studies [Rico H, Amo C, Revilla M, Arribas I, Gonzalez-Riola J, Villa L F, Rodriguez-Puyol M Etidronate versus Clodronate in the prevention of postovariectomy bone loss. An experimental study in rats. Clin Exp Rheumatol 1994, 12:301-304]. The manipulated rats were controlled to observe the development of intestinal function, alterations, and infection or dehiscence of surgical sutures. All rats received water ad libitum. The rats were kept for 30 days in the animal laboratory of department of Physiology and Pharmacology, Karolinska Institutet Living conditions (12 hours of light and 12 hours of darkness; mean room temperature 22° C.), habitat, and diet met current guidelines of the European Union. Weight was measured with a precision biomedical balance.
Densitometric and Morphometric Studies. After 30 days, all rats were anesthetized and killed by exsanguination from the abdominal aorta after being anesthetized with 4 mg/100 g body weight of sodium pentothal. The femur and 5th lumbar vertebra of rat were dissected and placed in an 85° C. water bath to remove soft tissue. Femoral length and vertebral height were measured with a caliper and bones were weighed on a precision balance. The BMC and BMD of the whole right femur and 5th lumbar vertebra were measured using a desitometer equipped with a special program for studying small […] and samples. The instrument was calibrated daily. Because of the influence of weight on bone mass in rate [Rico H, Amo C, Revilla M, Arribas I, Gonzalez-Riola J, Villa L F, Rodriguez-Puyol M Etidronate versus Clodronate in the prevention of postovariectomy bone loss. An experimental study in rats. Clin Exp Rheumatol 1994, 12:301-304] and human beings [Rico H, Revilla M, Villa L F, Alvarez de Buergo M A, Ruiz-Contreras D Determinants of total and regional bone mineral content and density in postpubertal normal women. Metabolism 1994, 43 :263-266], BMC was corrected for final body weight (BMC/BW). The BMC and BMD of the femurs and 5th lumbar vertebra were measured separately.

ovariectomised rats [1] = assay: Tail-flick test in ovariectomised rats after intravaginal oxytocin; format: in vivo, rat; conditions: tails in water at 51° C.; intravaginal oxytocin versus saline; FIG. 4
Method: One way of applying somatic discomfort to an organism is to subject a part of it to a high temperature. This relief effect of oxytocin was investigated in a tail-flick test. In this test the tails of ovariectomised rats were immersed in water at 51° C. With reference to FIG. 4, the latency time from the immersion of the tails to the withdrawal thereof were measured for rats treated with oxytocin (▴) and rats treated with saline (□). For each group of rats, the test sessions were accomplished three times with a period of 15 minutes between the sessions. […] A longer latency time means that the rat could stand the somatic discomfort better such as increased temperature ta it otherwise would do.

[2] = tested on: postmenopausal women with atrophic, ulcerous vaginal mucous membranes; assay: Intravaginal oxytocin administration to postmenopausal women (seven women, inspection by gynaecologist); format: in vivo, human; conditions: oxytocin 1 mg/ml mixed with 1 ml cellulose gel intravaginally
Method: Seven women at an age of 60-70 years, otherwise completely healthy, with expressed postmenopausal disorders in the form of white, thin, atrophic, easy-bleeding and ulcerous vaginal mucous membranes were included in the study. They were treated with oxytocin 1 mg/ml mixed with 1 ml cellulose gel intravaginally driving five consecutive days,
The treatment was effected by a gynaecologist who inspected the mucous membranes. After a treatment lasting 2-3 days, the mucous membranes had improved in that they looked like those in a female woman.
At the same time, it was observed that the mood of the women was improved. They seemed obviously happy and reported that they felt happy, and many of them had resumed their sex lives.

ovariectomised rats [3] = assay: Weight change in ovariectomised rats given subcutaneous oxytocin; format: in vivo, rat
Method: (§1) Female sexually mature Sprague-Dawley rats weighing 250-300 g were used (B & K Universal Sollentuna, Sweden). The rats were housed 5 to each cage with free access to food and tap water at 20±2° C. and with a 12 h light/12 h dark cycle for at least 3 weeks before and throughout the experimental period.
A rat having its ovaries removed also gains weight compared to untreated rats.

ovariectomised rats [4] = assay: Subcutaneous oxytocin administration to ovariectomised rats, endocrine study; format: in vivo, rat; conditions: 1 mg/kg subcutaneously during five days
Method: as §1
Ovariectomy means removal of an ovary or ovaries and can eg be effected according to Merchentaler, I., Funkhouser, J. M., Carver, J. N, Lundeen, S. G., Ghosh, K, Winneker, R. C. The effect of estrogens and antiestrogens in a rat model for hot flush. Maturitas, Nov 16, 1998; 30(3): 307-316.
In an experimental animal study, eight ovariectomised rats were treated with oxytocin. The ovaries were removed in order to create a menopause-like situation. After a mouth, an endocrine study was made. The “menopausal” rats get a changed hormone balance. Their insulin levels and, to a certain extent their blood sugar levels rise, possibly in consequence of increased insulin resistance. Their cortisol and growth hormone levels decrease, which expresses an inability to mobilise calories for activity. An oxytocin treatment during five days (1 mg/kg given subcutaneously during five days) restored the hormone balance.

ovariectomised rats [5] = assay: Subcutaneous oxytocin combined with hormone treatment in ovariectomised rats, plasma corticosterone and GH; format: in vivo, rat; conditions: oxytocin 1 mg/kg s.c. five days, FIG. 2
Description: FIG. 2 is a bar graph showing the plasma concentrations of corticosterone and growth hormone (GH) in ovariectomised rats subjected to subcutaneous treatment. Group A refers to rats treated with oestrogen, progesterone, and oxytocin. Group B refers to rats treated with oestragen and progesterone. Group C refers to rats treated with oxytocin. Group D refers to rats treated with saline.
as §1
In another experimental animal study, the effect of oxytocin (1 mg/kg given subcutaneously during five days) combined with hormone treatment was investigated. All treatment groups A-D each contained eight ovariectomised rats. […] Analogously to the insulin levels, the corticosterone and GH levels were normalised (but increased) by oxytocin treatment.

[6] = tested on: women two years into menopause with vaginal rash, pain and dryness; assay: Double blind intravaginal oxytocin gel versus cellulose gel in 20 menopausal women, biopsy and interview; format: in vivo, human
Method: Besides, a further experiment was conducted, wherein 20 women, all of them at two years into menopause and otherwise healthy. None of them underwent hormone replacement therapy. All patients had objective and subjective symptoms of vaginal rash, pain and a feeling of dryness.
Ten patents were treated with oxytocin 1 mg/ml mixed with 1 ml close gel intravaginally during five consecutive days, whereas the remaining ten patients were treated with 1 ml cellulose gel intravaginally dog five consecutive days as control. Before treatment with either control or oxytocin gel we took a biopsy, this procedure was repeated after 5 days of treatment. The protocol was a double blind protocol, ie the microscopic evaluations were performed by the same experienced pathologist before the code was broken.

ovariectomised rats [7] = assay: Hot flush model: tail skin temperature after naloxone withdrawal in morphine-addicted ovariectomised rats; format: in vivo, rat; conditions: vehicle rats 5-6° C. elevation
Method: (§2) Virgin adult cycling Sprague-Dawley rats weighing 300-350 g (Example 4) and 190-210 g (Example 5) and with regular 4-day oestrous cycles were used (Möllegaard, Denmark). The rats were housed 4 to each cage with free access to pelleted food and tap water at 22° C. and with a 12 h light/12 h dark cycle for at least 1 week before and throughout the experimental period.
In this study, ovariectomised rats (300-350 g) were treated with oxytocin for 8 days subcutaneously. Rats were addicted to morphine by implanting a morphine pellet (75 mg each) subcutaneously on days 3 and 5 of treatment. On the last day of treatment, an infrared thermistor was placed above the tail of each animal and morphine addiction was withdrawn by naloxone injection (1.0 mg/kg, subcutaneously). Temperature measurements were taken for 1 h under ketamine (80 mg/kg. intramuscularly) anaesthesia.

ovariectomised rats [8] = assay: Forward locomotion of ovariectomised rats after intravaginal oxytocin gel; format: in vivo, rat; parameters: forward locomotion, Minutes 1-15 / forward locomotion, Minutes 16-30 / forward locomotion, Minutes 1-30 / forward locomotion, Minutes 1-15, AVERAGE / forward locomotion, Minutes 16-30, AVERAGE / forward locomotion, Minutes 1-30, AVERAGE: unit not given here
Method: as §1
The ovaries of seven female rats were removed. After 2 weeks, the rats were treated with oxytocin gel given intravaginally (conc. 1 mg/ml). […] Most probably, there is an activation of nerves present in the vaginal mucous membrane.
The total experimental time is 30 minutes per rat, and the values in table I show the forward locomotion for the first 15 minutes, for the whole experimental time, and for the last 15 minutes.

[9] = tested on: rats with experimentally-induced polycystic ovaries; assay: Oestradiol valerate induced polycystic ovaries (PCO) in rats, NGF and ovarian morphology; format: in vivo, rat; conditions: oxytocin 1.0 mg/kg subcutaneously every third day
Method: as §2
Statistical analyses were carried out using the SPSS 8.0 software. NGF concentrations in the pituitary gland, the hypothalamus, the hippocampus, the ovary, and the adrenal glands were analysed and the groups compared using analyses of variance (ANOVA) followed by multiple comparison procedures Bonferroni test).
All rats (totally 59) received a single intramuscular injection either of oestradiol valerate (EV), oil, or 0.15 M NaCl (Kabi Pharmacia AB, Sweden) and were anaesthetised with enflurane. Twenty rats re injected with 4 mg EV in 0.2 ml oil/rat (ten rats in the control group and ten in the oxytocin treated). They were decapitated after 30 days to elucidate when the ovaries display characteristic features of well-defined PCO (Brawer et al., 1978, Supra; Brawer et al., 1986, supra). The oxytocin treated group received subcutaneous oxytocin 1.0 mg/kg subcutaneously every third day during the experimental period.

[10] = ovariectomized rats, oxytocin 1.0 mg/kg sc for 10 days, after 30 days, mean ± SD
[11] = individual rats R1-R7, oxytocin gel 1 mg/ml intravaginally

## oxytocin
Ovariectomized rats; [10]
  F-BMC (femur bone mineral content): 335 ± 37 mg
  F-BMC/BW (femur BMC corrected for final body weight): 1.12 ± 0.09 mg/g
  F-BMD (femur bone mineral density): 131 ± 18 mg/cm^2
  Femur (femoral length): 35.5 ± 1.3 mm
  Femur (weight): 712 ± 42 mg
  V-BMC (5th lumbar vertebral bone mineral content): 110 ± 16 mg
  V-BMD (5th lumbar vertebral bone mineral density): 107 ± 13 mg/cm^2
  Vertebra (5th lumbar vertebra weight): 273 ± 32 mg
  Vertebra (5th lumbar vertebral height): 6.9 ± 0.6 mm
Ovariectomized rats; ovariectomized rats, oxytocin 1.0 mg/kg sc for 10 days, after 30 days, mean ± SD, 15 rats
  Final weight: 334 ± 31 g
Ovariectomized rats; oxytocin treatment for 10 days
  bone loss in ovariectomized rats: suppresses bone loss
Ovariectomised rats [1]
  tail-flick latency time (immersion to withdrawal): increases the latency time
[2]
  mood of the women: improved
  treatment time until mucous membranes had improved: 2 to 3 days
[2]; after 2-3 days
  ulcers of vaginal mucous membranes: all ulcers had disappeared
[2]; five consecutive days, seven women 60-70 years
  state of vaginal mucous membranes on inspection: improved
Ovariectomised rats [3]; oxytocin for 10 days
  food intake: do not eat less
Ovariectomised rats [3]; oxytocin for 10 days subcutaneously, versus saline controls, FIG. 3
  weight gain after ovariectomy: do not gain weight as much
Ovariectomised rats [4]; compared to NaCl controls
  blood sugar levels: normalised
Ovariectomised rats [4]; compared to control rats treated with NaCl, FIG. 1
  plasma insulin levels: normalised ie lowered
Ovariectomised rats [5]; compared with saline treated rats, eight rats per group
  plasma GH levels: significantly higher
Ovariectomised rats [5]; compared with rats treated with oestrogen+progesterone
  plasma corticosterone levels: significantly higher
[6]; after 5 days of treatment
  inflammation in histology (biopsy): no or a lesser degree of inflammation
[6]; after 5 days of treatment, except cases with normal epithelium before treatment
  histology of vaginal epithelium (biopsy): normalization of the epithelium
[6]; oxytocin 1 mg/ml in 1 ml gel intravaginally, five days, ten patients, versus cellulose gel control
  subjective relief in interviews: expressed relief
Ovariectomised rats [7]; repeated oxytocin 1.0 mg/kg subcutaneous for 8 days
  tail skin temperature increase (flashes) after naloxone: significantly inhibited
Ovariectomised rats [8]; average of 7 rats (SD 1.36), control average 24.71, T-test 0.03*
  forward locomotion, Minutes 1-30, AVERAGE: 26.91
Ovariectomised rats [8]; average of 7 rats (SD 1.81), control average 27.10, T-test 0.04*
  forward locomotion, Minutes 1-15, AVERAGE: 30.20
Ovariectomised rats [8]; average of 7 rats (SD 2.86), control average 18.33, T-test 0,44 ns
  forward locomotion, Minutes 16-30, AVERAGE: 20.13
Ovariectomised rats [8]; [11]
  forward locomotion, Minutes 1-30: 27.7 (2×) and 25.3 and 25.1 and 26.3 and 28.7 and 27.6
  forward locomotion, Minutes 16-30: 20.3 and 19.8 and 17.7 and 23.2 and 21.6 and 15.3 and 23
Ovariectomised rats [8]; individual rats R1-R7, oxytocin gel 1 mg/ml intravaginally, two days after completed treatment
  forward locomotion, Minutes 1-15: 30.7 and 27.8 and 28.8 and 28.6 and 32.2 and 32.3 and 31
Ovariectomised rats [8]; two days after completed intravaginal treatment, compared to gel without oxytocin
  behaviour changes (motor activity such as forward locomotion): increased motor activity
[9]; 30 days, compared to non-oxy-treated PCO rats
  concentrations of NGF in the ovaries: significantly lower
[9]; versus EV control group
  ovarian morphology (PCO changes): significantly less changes

## C#C[C@]1(O)CC[C@H]2[C@@H]3CCc4cc(O)ccc4[C@H]3CC[C@@]21C [17-alpha-ethinyloestradiol]
Ovariectomised rats [7]; 0.1 m g subcutaneous
  tail skin temperature increase (flashes) after naloxone: significantly inhibited
